Measured values reported in patent US12246021B2, “Compounds for uses in pharmacological induction of HBF for treatment of sickle cell disease and ß-thalassemia” (Academia Sinica, priority 2019, dated 2025).
Each block holds one molecule with its values, some of them ahead of it.

Tests used:
BCL11A protein = experiment: Western blot of BCL11A protein in primary human erythroid cells; type: cell-based; settings: for expression level of BCL11A protein (in words): 3 days, AS-28 at 0.5 μM and 1 μM
Procedure: (§1) Peripheral blood samples were purchased from the Taipei Blood Center. The concentrated blood was diluted 1:5 (V/V) in phosphate-buffered saline (PBS) and distributed in a thin layer on Ficoll-paque PLUS ([…]) (GE Healthcare) in a SepMate column (STEMCELL). After centrifugation at 1200 g for 10 minutes, the cells in the inter-phase region were collected. The collected cells were washed with PBS and centrifuged at low speed three times. The remaining mononuclear cells were expanded in Phase I medium containing 1×SFEM (STEMCELL), 100 ng/ml SCF, 20 ng/ml IL-3, 20 ng/ml IL-6, and 100 ng/ml Flt3-L at 37° C. in an incubator with 5% CO2 for 7 days. The expanded mononuclear cells were further differentiated in Phase II medium containing 1×SFEM (StemSpan), 20 ng/ml SCF, 5 ng/ml IL-3, 1 U/ml EPO for another 7 days. The differentiated erythroid cells were treated with indicated compounds of different dosages with a seeding density of 5×10^5 cells/ml for another 3 days.
After 3 days of treatment, total protein was extracted by modified RIPA (50 mM Tris-HCl pH7.8, 150 mM NaCl, 1% NP-40, 0.5% sodium deoxycholate, 0.1% SDS, 1 mM EGTA, 5 mM EDTA, 10 mM NaF, 1 mM […] and 1× complete EDTA-free Protease Inhibitor Cocktail). 30 μg of protein extracts were separated by 10% SDS-PAGE and the resulting gel was blotted onto PVDF membrane. After blocking with 5% non-fat milk in TBST, the membrane was incubated overnight with primary antibody against BCL11A or β-actin at 4° C. After incubating with horseradish peroxidase-conjugated secondary antibodies and washing the blot, the signals of indicated proteins were visualized by ECL (PerkinElmer) following the manufacturer's protocol.
BCL11A has been reported as a key negative regulator of γ-globin gene expression^23. Knockdown of BCL11A dramatically increases expression of the γ-globin gene. To investigate whether HbF-inducing agents activate γ-globin gene expression by modulating BCL11A protein levels, primary human erythroid cells were treated with known HbF-inducing agents (HU, NaB, and AS-28 (0.5 μM and 1 μM)), and also Compound II, SS-2394, Compound 3, Compound 8, and then harvested for Western blot analysis (FIG. 4; FIG. 11).

SCD mice = experiment: Oral AS-28 in SCD mice: blood count, HbF HPLC, F-cells, blood smear; type: in vivo; settings: 50, 75 or 100 mg/kg oral gavage twice per day, 5 days per week, 4 weeks
Procedure: Sickle cell disease mice (B6; 129-Hba^tm1(HBA)Tow, Hbb^tm2(HBG1,HBB*)Tow/J) were purchased from Jackson Laboratory and were bred at the AS Core, Academia Sinica. Mice of 6-8 weeks old were used for experiments. Treatment groups received vehicle [20% (2-Hydroxypropyl)-β-cyclodextrin] plus AS-28 (50 mg/kg, 75 mg/kg or 100 mg/kg), which was administered by oral gavage twice per day, 5 days per week, for 4 weeks.
Blood was collected by submandibular blood collection and analysis was performed using a ProCyte Dx automatic analyzer.
10 μl of whole blood was washed twice with PBS and then fixed with 0.05% glutaraldehyde for 10 minutes. After fixation, the cells were washed twice with PBS and then permeabilized by adding cold 0.1% Triton X-100 for 5 minutes. Cells were washed twice with 0.1% BSA/PBS and stained with PE-HbF antibody (BD) for 40 minutes at room temperature (with protection from light). Finally, the cells were washed three times with 0.1% BSA/PBS and passed through a […] cell strainer (Falcon). F-cell % was analyzed by flow cytometry (LSRII-18P, BD).
50 μl of whole blood was lysed in 200 μl ddH2O and centrifuged for 5 minutes at 13,000 rpm to extract the hemolysate. HPLC was performed according to a previously described protocol^22.
For hypoxia treatment, whole blood was incubated in a hypoxic incubator chamber (3% 02) for 30 minutes. […] of whole blood (with or without hypoxia) was used to make blood smears on slides. Slides were air-dried and then stained with Liu-stain before quantifying the percentage of sickle-shaped cells.
To further evaluate the therapeutic potential of AS-28 for treating hemoglobinopathies, SCD mice (an SCD disease animal model generated by the laboratory of Prof. Tim Townes, University of Alabama) were used to examine whether AS-28 treatment could relieve anemia in SCD mice. Different dosages of AS-28 were administered to 6-8 week-old SCD mice over four weeks. After four weeks of oral gavage, blood samples from the treated SCD mice were collected for several biochemical analyses (FIG. 5). […] Reticulocyte (RET), white blood cell (WBC) and neutrophil (NEUT) values were equivalent between AS-28-treated and mock-treated SCD mice. […] A diagnostic indicator of SCD is the characteristic sickle-shaped morphology of red blood cells under hypoxia.

γ-globin gene [1] = experiment: γ-globin mRNA induction in hydroxyurea-resistant primary human erythroid cells; type: cell-based; settings: 0.5 μM, HU-resistant primary human erythroid cells
Procedure: as §1, with “The differentiated erythroid cells were treated with indicated compounds of different dosages with a seeding density of 5×10^5 cells/ml for another 3 days.” left out
After 3 days of compound treatment, total RNA was extracted by a Quick-RNA miniprep kit (Zymo) and reverse-transcription was performed using Maxima H Minus Reverse Transcriptase (ThermoFisher Scientific) according to the manufacturer's instructions. Quantitative PCR was performed on a LightCycler system with SYBR green master mix following the manufacturer's instructions (Roche). The relative quantitative RT-PCR data was normalized to the Cq number of […] and compared to a mock control. […]

NFE2L2 = experiment: RT-qPCR of γ-globin transcription regulators in human primary erythroid cells: NFE2L2; type: cell-based; settings: AS-28 0.5 μM
Procedure: (§2) The total RNAs were isolated from human primary erythroid cells in culture without (Mock) and with (AS-28) treatment by AS-28, and analyzed by RT-qPCR. N=4 biological experiments, *, p<0.05; ***, p<0.001.
(§3) After 3 days of compound treatment, total RNA was extracted by a Quick-RNA miniprep kit (Zymo) and reverse-transcription was performed using Maxima H Minus Reverse Transcriptase (ThermoFisher Scientific) according to the manufacturer's instructions. Quantitative PCR was performed on a LightCycler system with SYBR green master mix following the manufacturer's instructions (Roche). The relative quantitative RT-PCR data was normalized to the Cq number of […] and compared to a mock control.
(§4) In order to examine whether AS-28 would cause cellular toxicity, the gene expression profiles of human primary erythroid cells in culture were compared by RNA-sequence analysis. Several candidate genes, encoding known γ globin gene regulators were selected from the gene list of RNA-sequence data (fold change >1.4) for validation by RT-qPCR (FIG. 7). […] In addition, AS-28 inhibited the expression of γ globin repressor c-MYB (0.5-fold).

in vivo = settings: rat
Text: The abbreviations as defined as follows: IV—intravenous; PO—per-os (oral); T1/2—half-life; CL—clearance; Vss—steady-state distribution volume; AUC(0-inf)—area under the curve; F—bioavailability; ND—not detected.

γ-globin gene [2] = experiment: γ-globin mRNA induction by quantitative RT-PCR in primary human erythroid cell culture; type: cell-based; settings: 3 days, primary human erythroid cells
Procedure: as §1, with “The expanded mononuclear cells were further differentiated in Phase II medium containing 1×SFEM (StemSpan), 20 ng/ml SCF, 5 ng/ml IL-3, 1 U/ml EPO for another 7 days. The differentiated erythroid cells were treated with indicated compounds of different dosages with a seeding density of 5×10^5 cells/ml for another 3 days.” left out
as §3
Compound AS-28 was designed based on the pharmacophore of the HbF-inducing compound TN1 (FIGS. 1A-1B). The efficacy of γ-globin gene induction by AS-28 treatment using a primary human erythroid cell culture system was evaluated. […]

[3] = tested on: human primary erythroid cells; experiment: RNA-sequence gene expression profile with Ingenuity Pathways Analysis; type: cell-based; settings: human primary erythroid cells treated with AS-28
Procedure: The RNA-sequence data was analyzed by Ingenuity Pathways Analysis (IPA). The top cellular pathways in the primary erythroid cells affected by AS-28 are listed here. DEGs: Fold change ≥1.4, p<0.05.
as §4
To reveal the global effect of AS-28 on human primary erythroid cells, the differentially expressed genes (DEGs) from the RNA-sequence data (fold change ≥1.4 and p<0.05) were selected for analysis by Ingenuity Pathways Analysis (IPA).

[4] = Solubility of the compounds; type: physicochemical
c-MYB = experiment: RT-qPCR of γ-globin transcription regulators in human primary erythroid cells: c-MYB; type: cell-based; settings: AS-28 0.5 μM
Procedure: as §2, §3, §4

[5] = tested on: primary human erythroid cells; experiment: Cell viability assay (AlamarBlue) in primary human erythroid cell culture; type: cell-based; settings: 3 days
Procedure: as §1, with “The differentiated erythroid cells were treated with indicated compounds of different dosages with a seeding density of 5×10^5 cells/ml for another 3 days.” left out
Cell viability was assessed using AlamarBlue reagent (Invitrogen). […] Cell viability was evaluated using a multi-label counter (Ex 530-560 nm, Em 590 nm) (PerkinElmer).
Compound AS-28 was designed based on the pharmacophore of the HbF-inducing compound TN1 (FIGS. 1A-1B). The efficacy of γ-globin gene induction by AS-28 treatment using a primary human erythroid cell culture system was evaluated. After two weeks of in vitro erythroid cell differentiation, cells were treated with AS-28 for three days and then harvested for quantitative RT-PCR analysis and cell viability assay.

[6] = tested on: HU-resistant primary human erythroid cells; experiment: Cell viability in hydroxyurea-resistant primary human erythroid cells; type: cell-based; settings: 0.5 μM
Procedure: as §1
Cell viability was assessed using AlamarBlue reagent (Invitrogen). After 3 days of treatment, 100 μl of treated cell culture was transferred into a 96-well plate and 1/10 volume of AlamarBlue reagent was added and the cell culture was incubated overnight at 37° C. Cell viability was evaluated using a multi-label counter (Ex 530-560 nm, Em 590 nm) (PerkinElmer). […]

GATA1 = experiment: RT-qPCR of γ-globin transcription regulators in human primary erythroid cells: GATA1; type: cell-based; settings: AS-28 0.5 μM
Procedure: as §2, §3, §4

Structure (SMILES): CCCC(=O)[O-].[Na+] [NaB, sodium butyrate, reference compound]
expression level of BCL11A protein (in words) (BCL11A protein): significantly decreased

neutrophil (NEUT) values vs mock-treated (SCD mice): equivalent
white blood cell (WBC) values vs mock-treated (SCD mice): equivalent
bioavailability (in vivo): ~25%
water solubility [4]: improved
Structure (SMILES): CCN1CCN(c2nc(Nc3cccc(NC(=O)C#Cc4ccc(C)cc4)c3)c3ncn(CC)c3n2)CC1 [AS-28, 3-p-Tolyl-propynoic acid {3-[9-ethyl-2-(4-ethylpiperazin-1-yl)-9H-purin-6-ylamino]phenyl}amide]
hemoglobin levels (HGB) vs mock-treated control (SCD mice): slightly increased
percentage of F-cells (flow cytometry) (SCD mice): elevated
percentage of HbF (HPLC) (SCD mice): significantly increased
percentage of sickle-shaped cells in blood smears under hypoxia (SCD mice): significantly decreased
red blood cell (RBC) numbers vs mock-treated control (SCD mice): slightly increased
reticulocyte (RET) values vs mock-treated (SCD mice): equivalent
γ-globin mRNA expression elevation (γ-globin gene [1]): at least 2 fold
NFE2L2 expression (γ globin activator), RT-qPCR vs mock (NFE2L2): 1.5 fold
expression level of BCL11A protein (in words) (BCL11A protein): significantly decreased
reduction of BCL11A protein levels (BCL11A protein; FIG. 4): 50%
reduction of BCL11A protein levels (BCL11A protein; FIG. 11): 60%
γ-globin mRNA expression activation (γ-globin gene [2]; 0.5 μM): 3.5 fold
γ-globin induction (γ-globin gene [2]; 1 μM and 2 μM): reduced
top 5 canonical pathways affected (IPA of DEGs, fold change ≥1.4, p<0.05) [3]: does not include the cell toxicity-related pathways
c-MYB expression (γ globin repressor), RT-qPCR vs mock (c-MYB): 0.5 fold
cytotoxicity ([5]; 0.5 μM): without inducing significant cytotoxicity
cytotoxicity ([5]; 1 μM and 2 μM): cell cytotoxicity
cytotoxicity [6]: only minor cytotoxicity
GATA1 expression (γ globin activator), RT-qPCR vs mock (GATA1): 1.5 fold
